For one assay, the system named is HCT116 cells. Description: Mitotic arrest assay on HCT116 cells (phospho-histone H3 Ser10). The format is cell-based, human. The note with it: lowest active dose; for minimal effective concentration: Homo sapiens, HCT-116, HCT116 cells, read-out: Mitotic arrest HCT116 LAD (converted). Put shortly: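 Read-out is imaging of phospho-histone H3 Ser10 (Alexa Fluor 488) with Hoechst nuclear counting, after 6 h compound exposure at 37 °C, DMSO ≤0.1%. LAD is the lowest dose at which the blank-corrected value over SD exceeds 5; triplicates, low-count wells excluded.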

The target of a further assay is T1, Human PARP-1 enzyme (Homo sapiens, UniProt P09874).
T1 construct: purchased Trevigen
T1 sequence (P09874 whole entry): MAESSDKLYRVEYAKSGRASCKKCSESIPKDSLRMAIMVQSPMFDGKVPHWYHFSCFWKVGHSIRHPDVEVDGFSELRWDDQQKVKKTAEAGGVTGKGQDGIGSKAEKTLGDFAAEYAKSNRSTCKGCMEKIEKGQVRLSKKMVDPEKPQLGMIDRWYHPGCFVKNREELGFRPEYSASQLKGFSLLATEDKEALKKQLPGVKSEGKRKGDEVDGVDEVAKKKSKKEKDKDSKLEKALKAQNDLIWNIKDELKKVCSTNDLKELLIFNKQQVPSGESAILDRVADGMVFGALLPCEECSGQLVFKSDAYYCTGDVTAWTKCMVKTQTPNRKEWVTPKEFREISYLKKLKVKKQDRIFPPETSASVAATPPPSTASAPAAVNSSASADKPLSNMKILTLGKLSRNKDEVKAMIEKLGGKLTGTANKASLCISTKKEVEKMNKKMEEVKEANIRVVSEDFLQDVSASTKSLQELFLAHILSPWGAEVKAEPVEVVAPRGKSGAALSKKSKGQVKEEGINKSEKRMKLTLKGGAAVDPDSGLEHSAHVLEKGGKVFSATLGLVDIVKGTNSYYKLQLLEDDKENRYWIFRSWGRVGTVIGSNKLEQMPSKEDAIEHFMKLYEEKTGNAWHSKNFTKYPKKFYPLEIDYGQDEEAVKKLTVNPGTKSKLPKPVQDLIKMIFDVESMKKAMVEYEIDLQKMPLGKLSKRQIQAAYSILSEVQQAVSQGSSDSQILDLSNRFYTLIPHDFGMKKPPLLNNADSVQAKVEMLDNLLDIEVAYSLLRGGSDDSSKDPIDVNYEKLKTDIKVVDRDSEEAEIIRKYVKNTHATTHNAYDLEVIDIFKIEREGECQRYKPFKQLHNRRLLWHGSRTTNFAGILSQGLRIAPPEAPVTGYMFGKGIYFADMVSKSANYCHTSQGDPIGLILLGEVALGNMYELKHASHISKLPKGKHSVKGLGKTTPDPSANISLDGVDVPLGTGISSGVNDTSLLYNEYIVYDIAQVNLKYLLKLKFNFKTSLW
Description: In vitro Scintillation Proximity Assay (SPA) for PARP-1 inhibitory activity. The note with it: read-out: in vitro SPA assay PARP-1 pIC50 (converted). The format is biochemical. Put shortly: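 SPA assay: nicked-DNA-activated PARP-1 (0.1–0.2 μg/ml) ADP-ribosylates biotinylated histones (2 μg/ml) using [3H]-NAD+, 20 min at RT in Tris pH 8/DTT/MgCl2, stopped with 2 mM NAD+. Blank-subtracted cpm expressed as % control; IC50 by linear interpolation, reported as pIC50 (10−5 to 3×10−9 M tested).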

Regarding `C#Cc1cccc(CC(C)(C#N)c2ccc3cc(CC)c(=O)[nH]c3c2)n1` (centres unmarked) [Compound 211], the minimal effective concentration in the assay with HCT116 cells is 1 µM. Besides, the IC50 on Human PARP-1 enzyme was 126 nM.
On the same counts, the results for `CCc1cc2ccc(C(C)(C#N)Cc3nc4ccccc4n3C)cc2[nH]c1=O` (centres unmarked) [Compound 338] are 0.3 µM and 200 nM.
On the same counts, the results for `CCc1cc2ccc(C(C)(C#N)Cc3cccc(/C=C/S(C)(=O)=O)c3)cc2[nH]c1=O` (centres unmarked) [Compound 292] are 0.1 µM and 63.1 nM.
Regarding `CCc1cc2ccc(C(C)(C#N)Cc3cccc(C#C[Si](C)(C)C)n3)cc2[nH]c1=O` (centres unmarked) [Compound 210], the minimal effective concentration in the assay on HCT116 cells is 1 µM. Moreover, the IC50 at Human PARP-1 enzyme is 398 nM.
On the same counts, the results for `CCc1cc2ccc(C(C)(C#N)Cc3ccc(C)nc3)cc2[nH]c1=O` (centres unmarked) [Compound 327] are 3 µM and 100 nM.
On to `CCc1cc2ccc(C(F)(C#N)Cc3ccccc3)cc2[nH]c1=O` (centres unmarked) [Compound 187], for which the minimal effective concentration in the assay with HCT116 cells was 3 µM. Also, the IC50 at Human PARP-1 enzyme is 63.1 nM.
As to `CC(=O)c1cc2ccc(C(C)(C#N)Cc3ccccc3)cc2[nH]c1=O` (centres unmarked) [Compound 39], the minimal effective concentration in the assay with HCT116 cells is 3.16 µM. The IC50 at Human PARP-1 enzyme was 7940 nM.
The corresponding values for `CCc1cc2ccc(C(C)(C#N)Cc3ccc(OC)nc3)cc2[nH]c1=O` (centres unmarked) [Compound 352] are 1 µM and 100 nM.
With `CCOc1cc(OCC)nc(CC(C)(C#N)c2ccc3cc(CC)c(=O)[nH]c3c2)n1` (centres unmarked) [Compound 309], the minimal effective concentration with HCT116 cells was 1 µM. The IC50 at Human PARP-1 enzyme was 158 nM.
On to `CCc1cc2ccc(C(C)(C#N)Cc3cccc(OC)n3)cc2[nH]c1=O` (centres unmarked) [Compound 353], for which, in the assay with HCT116 cells, the minimal effective concentration is 0.3 µM. Also, at Human PARP-1 enzyme, the IC50 was 79.4 nM.
In the case of `CCc1cc2ccc(C(C)(C#N)Cc3ccc4ccccc4n3)cc2[nH]c1=O` (centres unmarked) [Compound 336], the minimal effective concentration in the assay on HCT116 cells is 1 µM. The IC50 on Human PARP-1 enzyme is 79.4 nM.
The corresponding values for `CCc1cc2ccc(C(C)(C#N)Cc3cc(N(C)C)nc(Cl)n3)cc2[nH]c1=O` (centres unmarked) [Compound 364] are 1 µM and 158 nM.
The corresponding values for `CCc1cc2ccc(C(C)(C#N)Cc3nc(Cl)cc(N(C)C)n3)cc2[nH]c1=O` (centres unmarked) [Compound 359] are 0.1 µM and 79.4 nM.
With `CCc1cc2ccc(C(C)(C#N)CC3CCc4ccccc4O3)cc2[nH]c1=O` (centres unmarked) [Compound 399], the minimal effective concentration with HCT116 cells was 0.3 µM. Moreover, the IC50 on Human PARP-1 enzyme was 316 nM.
The corresponding values for `COc1cc(OC)nc(CC(C)(C#N)c2ccc3cc(C)c(=O)[nH]c3c2)n1` (centres unmarked) [Compound 308] are 0.1 µM and 631 nM.
On the same counts, the results for `Cc1cc2ccc(C(C)(C#N)Cc3cccc(C#N)c3)cc2[nH]c1=O` (centres unmarked) [Compound 34] are 0.1 µM and 794 nM.
As for `CCc1cc2ccc([C@@](C)(C#N)Cc3cccc(C#N)c3)cc2[nH]c1=O` (single isomer, unassigned) [Compound 268], the minimal effective concentration in the assay with HCT116 cells is 10 µM. At Human PARP-1 enzyme, the IC50 was 50.1 nM.
`C=Cc1cccc(CC(C)(C#N)c2ccc3cc(CC)c(=O)[nH]c3c2)c1` (centres unmarked) [Compound 172]: the minimal effective concentration in the assay with HCT116 cells is 0.3 µM. The IC50 on Human PARP-1 enzyme was 100 nM.
For `CCc1cc2ccc(C(C)(C#N)Cc3cccc(Br)n3)cc2[nH]c1=O` (centres unmarked) [Compound 344], the minimal effective concentration with HCT116 cells is 0.3 µM. In addition, on Human PARP-1 enzyme, the IC50 is 63.1 nM.
Turning to `C#Cc1cccc(C[C@](C)(C#N)c2ccc3cc(CC)c(=O)[nH]c3c2)c1` [Compound 2], the minimal effective concentration in the assay on HCT116 cells was 10 µM. Further, at Human PARP-1 enzyme, the IC50 was 126 nM.
Take `CCc1cc2ccc(C(C)(C#N)Cc3cccc(OCCO)c3)cc2[nH]c1=O` (centres unmarked) [Compound 262]: in the assay on HCT116 cells, the minimal effective concentration is 0.3 µM. Besides, the IC50 on Human PARP-1 enzyme is 79.4 nM.
Compound `CCc1cc2ccc(C(C)(C#N)Cc3cccc(CCC#N)c3)cc2[nH]c1=O` (centres unmarked) [Compound 169] had a Mitotic arrest HCT116 LAD in the assay on HCT116 cells (HCT116 cells, the values are: pLAD (−log M lowest active dose)) of 6. At Human PARP-1 enzyme, the IC50 is 79.4 nM.

These data come from patent publication US8778966B2, “Quinolinone derivatives as PARP and tank inhibitors” (Janssen Pharmaceutica, NV, priority 2007, dated 2014).
